Earlier results as cited in patent US20110105387A1 (priority 2009, published 2011).
≈ marks a conversion by molar mass, not a printed value.

How the values were obtained:
[1] = literature
[2] = literature; remark: listed apart in the source

Structure (SMILES)	water solubility [1]	time to attain peak concentrations ([2]; after oral dosing)	increase in AUC with a high-fat meal ([2]; high-fat meal, slower rate of absorption)	excreted in urine [2]
CO[C@H]1C[C@@H]2CC[C@@H](C)[C@@](O)(O2)C(=O)C(=O)N2CCCC[C@H]2C(=O)O[C@H]([C@H](C)C[C@@H]2CC[C@@H](OC(=O)C(C)(CO)CO)[C@H](OC)C2)CC(=O)[C@H](C)/C=C(\C)[C@@H](O)[C@@H](OC)C(=O)[C@H](C)C[C@H](C)/C=C/C=C/C=C/1C [CCI-779]	~120 µg/mL (≈ 116 µM)	–	–	–
CO[C@H]1C[C@@H]2CC[C@@H](C)[C@@](O)(O2)C(=O)C(=O)N2CCCC[C@H]2C(=O)O[C@H]([C@H](C)C[C@@H]2CC[C@@H](O)[C@H](OC)C2)CC(=O)[C@H](C)/C=C(\C)[C@@H](O)[C@@H](OC)C(=O)[C@H](C)C[C@H](C)/C=C/C=C/C=C/1C [rapamycin]	–	≤ 2 h	35%	< 3%
